Measurements taken from patent publication US6914045B2, “Glycopeptide antibiotics” (Wyeth Holdings Corporation, priority 2001, dated 2005).
Values after ≈ are worked out from the molar mass of the structure shown.

What was measured:
Assay in all cases: in vitro antibacterial evaluation, MIC by broth dilution
Assay type in all cases: cell-based
[1] = system: Staphylococcus sp.; conditions: broth dilution, 18 hours at 35° C.; for MIC Staphylococcus aureus (ATCC 29213): strain ATCC 29213; for MIC Staphylococcus aureus (GC 1131): strain GC 1131; for MIC Staphylococcus aureus (GC 3051): strain GC 3051; for MIC Staphylococcus aureus (GC 3053): strain GC 3053; for MIC Staphylococcus aureus (GC 4541): strain GC 4541; for MIC Staphylococcus aureus (GC 4542): strain GC 4542; for MIC Staphylococcus aureus-SMITH (GC 4543): strain GC 4543; for MIC Staphylococcus aureus (GC 4544): strain GC 4544; for MIC Staphylococcus aureus (GC 4545): strain GC 4545; for MIC Staphylococcus haemolyticus (GC 4546): strain GC 4546; for MIC Coagulase Negative Staphylococcus (GC 4547): strain GC 4547; for MIC Coagulase Negative Staphylococcus (GC 4548): strain GC 4548; for MIC Coagulase Negative Staphylococcus (GC 4549): strain GC 4549; for MIC Coagulase Negative Staphylococcus (GC 4551): strain GC 4551; for MIC Coagulase Negative Staphylococcus (GC 6257): strain GC 6257
Summary of the method: (§1)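 Broth dilution per NCCLS standard M7-A2 in Muller-Hinton II […], with an inoculum of 5×10^5 CFU/mL and antibiotic spanning 64-0.06 μg/mL. The MIC is the lowest concentration that inhibits growth of the organism.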

[2] = system: Enterococcus sp.; conditions: broth dilution, 18 hours at 35° C.
Summary of the method: as §1

[3] = system: Streptococcus sp.; conditions: broth dilution, 18 hours at 35° C.
Summary of the method: as §1

[4] = system: Escherichia coli; conditions: 18 hours at 35° C.
Summary of the method: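 Broth dilution in Muller-Hinton II medium per NCCLS standard M7-A2, with an inoculum of 5×10^5 CFU/mL and antibiotic tested over 64-0.06 μg/mL. MIC was taken as the lowest concentration inhibiting visible growth.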

For COc1cc(-c2nc3cc(CC4NC(=O)C(C(C)c5ccccc5)NC(=O)CNC(=O)C(CO)NC(=O)C(C(O)C5CNC(=N)N5C5OC(CO)C(O)C(O)C5O)NC(=O)C(C(O)C5CNC(=N)N5)NC4=O)ccc3o2)cc(OC)c1OC (stereo not drawn) [Example 34, Cyclo[3-[2-(3,4,5-trimethoxyphenyl)-1,3-benzoxazol-5-yl]alanyl-3-(2-iminoimidazolidin-4-yl)seryl-3-(3-hexopyranosyl-2-iminoimidazolidin-4-yl)serylserylglycyl-β-methylphenyl-alanyl]], the “MIC Staphylococcus aureus (ATCC 29213)” value [1] was 32 µg/mL (≈ 27.5 µM), the “MIC Staphylococcus aureus (GC 1131)” value [1] was 32 µg/mL (≈ 27.5 µM) and the “MIC Staphylococcus aureus (GC 3051)” value [1] was 16 µg/mL (≈ 13.8 µM). The “MIC Staphylococcus aureus (GC 3053)” value [1] was 32 µg/mL (≈ 27.5 µM), the “MIC Staphylococcus aureus (GC 4541)” value [1] was 32 µg/mL (≈ 27.5 µM) and the “MIC Staphylococcus aureus (GC 4542)” value [1] was 32 µg/mL (≈ 27.5 µM). For the same compound, the “MIC Staphylococcus aureus-SMITH (GC 4543)” value [1] was 16 µg/mL (≈ 13.8 µM), the “MIC Staphylococcus aureus (GC 4544)” value [1] was 16 µg/mL (≈ 13.8 µM) and the “MIC Staphylococcus aureus (GC 4545)” value [1] was 32 µg/mL (≈ 27.5 µM). The “MIC Staphylococcus haemolyticus (GC 4546)” value [1] was 8 µg/mL (≈ 6.88 µM), the “MIC Coagulase Negative Staphylococcus (GC 4547)” value [1] was 16 µg/mL (≈ 13.8 µM) and the “MIC Coagulase Negative Staphylococcus (GC 4548)” value [1] was 16 µg/mL (≈ 13.8 µM). The “MIC Coagulase Negative Staphylococcus (GC 4549)” value [1] was 4 µg/mL (≈ 3.44 µM), the “MIC Coagulase Negative Staphylococcus (GC 4551)” value [1] was 32 µg/mL (≈ 27.5 µM) and the “MIC Coagulase Negative Staphylococcus (GC 6257)” value [1] was 8 µg/mL (≈ 6.88 µM). For the same compound, the “MIC Enterococcus faecalis (ATCC 29212)” value ([2]; strain ATCC 29212) was 64 µg/mL (≈ 55.1 µM), the “MIC Enterococcus faecalis (GC 2242)” value ([2]; strain GC 2242) was 32 µg/mL (≈ 27.5 µM) and the “MIC Enterococcus faecium (GC 2243)” value ([2]; strain GC 2243) was 32 µg/mL (≈ 27.5 µM). The “MIC Enterococcus faecalis (GC 2691)” value ([2]; strain GC 2691) was 32 µg/mL (≈ 27.5 µM), the “MIC Enterococcus faecalis (GC 3059)” value ([2]; strain GC 3059) was 32 µg/mL (≈ 27.5 µM) and the “MIC Enterococcus faecalis (GC 4552)” value ([2]; strain GC 4552) was 32 µg/mL (≈ 27.5 µM). The “MIC Enterococcus faecalis (GC 4553)” value ([2]; strain GC 4553) was 32 µg/mL (≈ 27.5 µM), the “MIC Enterococcus faecalis (GC 4554)” value ([2]; strain GC 4554) was 32 µg/mL (≈ 27.5 µM) and the “MIC Enterococcus faecium (GC 4556)” value ([2]; strain GC 4556) was 64 µg/mL (≈ 55.1 µM). For the same compound, the “MIC Enterococcus faecium (GC 4557)” value ([2]; strain GC 4557) was 8 µg/mL (≈ 6.88 µM), the “MIC Enterococcus avium (GC 4558)” value ([2]; strain GC 4558) was 16 µg/mL (≈ 13.8 µM) and the “MIC Enterococcus faecalis (GC 6189)” value ([2]; strain GC 6189) was 64 µg/mL (≈ 55.1 µM). For the same compound, the “MIC Streptococcus pneumoniae (ATCC 6301)” value ([3]; strain ATCC 6301) was 32 µg/mL (≈ 27.5 µM), the “MIC Streptococcus pneumoniae (GC 1894)” value ([3]; strain GC 1894) was 16 µg/mL (≈ 13.8 µM) and the “MIC Streptococcus pyogenes (GC 4563)” value ([3]; strain GC 4563) was 8 µg/mL (≈ 6.88 µM). The “MIC Streptococcus agalactiae (GC 4564)” value ([3]; strain GC 4564) was 32 µg/mL (≈ 27.5 µM), the “MIC Streptococcus pneumoniae (GC 4565)” value ([3]; strain GC 4565) was 32 µg/mL (≈ 27.5 µM) and the “MIC Escherichia coli (ATCC 25922)” value ([4]; strain ATCC 25922, broth dilution) was 64 µg/mL (≈ 55.1 µM). The “MIC Escherichia coli (GC 4559)” value ([4]; strain GC 4559, broth dilution) was 64 µg/mL (≈ 55.1 µM) and the “MIC Escherichia coli (GC 4560)” value ([4]; strain GC 4560, broth dilution) was 16 µg/mL (≈ 13.8 µM).

CC(c1ccccc1)C1NC(=O)CNC(=O)C(CO)NC(=O)C(C(O)C2CNC(=N)N2C2OC(CO)C(O)C(O)C2O)NC(=O)C(C(O)C2CNC(=N)N2)NC(=O)C(Cc2ccc(OC3OC(CO)C(OC4OC5COC(c6ccc(C(=O)c7cc(I)c(I)c(I)c7)cc6)OC5C(O)C4O)C(O)C3O)cc2)NC1=O (stereo not shown) [Example 187] was tested, and the “MIC Staphylococcus aureus (GC 1131)” value ([1]; inoculum 5×10^5 CFU/mL) was 64 µg/mL (≈ 34.3 µM), the “MIC Staphylococcus aureus (ATCC 29213)” value [1] was 64 µg/mL (≈ 34.3 µM) and the “MIC Staphylococcus aureus (GC 1131)” value [1] was 64 µg/mL (≈ 34.3 µM). The “MIC Staphylococcus aureus (GC 3051)” value [1] was 64 µg/mL (≈ 34.3 µM), the “MIC Staphylococcus aureus (GC 3053)” value [1] was 32 µg/mL (≈ 17.2 µM) and the “MIC Staphylococcus aureus (GC 4541)” value [1] was 64 µg/mL (≈ 34.3 µM). The “MIC Staphylococcus aureus (GC 4542)” value [1] was 64 µg/mL (≈ 34.3 µM), the “MIC Staphylococcus aureus-SMITH (GC 4543)” value [1] was 64 µg/mL (≈ 34.3 µM) and the “MIC Staphylococcus aureus (GC 4544)” value [1] was 64 µg/mL (≈ 34.3 µM). For the same compound, the “MIC Staphylococcus aureus (GC 4545)” value [1] was 64 µg/mL (≈ 34.3 µM), the “MIC Staphylococcus haemolyticus (GC 4546)” value [1] was 128 µg/mL (≈ 68.6 µM) and the “MIC Coagulase Negative Staphylococcus (GC 4547)” value [1] was 128 µg/mL (≈ 68.6 µM). The “MIC Coagulase Negative Staphylococcus (GC 4548)” value [1] was 16 µg/mL (≈ 8.58 µM), the “MIC Coagulase Negative Staphylococcus (GC 4549)” value [1] was 64 µg/mL (≈ 34.3 µM) and the “MIC Coagulase Negative Staphylococcus (GC 4551)” value [1] was 32 µg/mL (≈ 17.2 µM). The “MIC Coagulase Negative Staphylococcus (GC 6257)” value [1] was 32 µg/mL (≈ 17.2 µM), the “MIC Enterococcus avium (GC 4558)” value [2] was 16 µg/mL (≈ 8.58 µM) and the “MIC Enterococcus faecalis (ATCC 29212)” value [2] was 64 µg/mL (≈ 34.3 µM). For the same compound, the “MIC Enterococcus faecalis (GC 2242)” value [2] was 64 µg/mL (≈ 34.3 µM), the “MIC Enterococcus faecalis (GC 2691)” value [2] was 16 µg/mL (≈ 8.58 µM) and the “MIC Enterococcus faecalis (GC 3059)” value [2] was 128 µg/mL (≈ 68.6 µM). The “MIC Enterococcus faecalis (GC 4552)” value [2] was 64 µg/mL (≈ 34.3 µM), the “MIC Enterococcus faecalis (GC 4553)” value [2] was 32 µg/mL (≈ 17.2 µM) and the “MIC Enterococcus faecalis (GC 4554)” value [2] was 64 µg/mL (≈ 34.3 µM). The “MIC Enterococcus faecalis (GC 6189)” value [2] was 16 µg/mL (≈ 8.58 µM), the “MIC Enterococcus faecium (GC 2243)” value [2] was 16 µg/mL (≈ 8.58 µM) and the “MIC Enterococcus faecium (GC 4556)” value [2] was 128 µg/mL (≈ 68.6 µM). For the same compound, the “MIC Enterococcus faecium (GC 4557)” value [2] was 16 µg/mL (≈ 8.58 µM), the “MIC Enterococcus faecalis (ATCC 29212)” value ([2]; inoculum 5×10^5 CFU/mL, strain ATCC 29212) was 64 µg/mL (≈ 34.3 µM) and the “MIC Enterococcus faecalis (GC 2242)” value ([2]; inoculum 5×10^5 CFU/mL, strain GC 2242) was 64 µg/mL (≈ 34.3 µM). For the same compound, the “MIC Enterococcus faecium (GC 2243)” value ([2]; inoculum 5×10^5 CFU/mL, strain GC 2243) was 16 µg/mL (≈ 8.58 µM), the “MIC Enterococcus faecalis (GC 2691)” value ([2]; inoculum 5×10^5 CFU/mL, strain GC 2691) was 16 µg/mL (≈ 8.58 µM) and the “MIC Enterococcus faecalis (GC 3059)” value ([2]; inoculum 5×10^5 CFU/mL, strain GC 3059) was 128 µg/mL (≈ 68.6 µM). For the same compound, the “MIC Enterococcus faecalis (GC 4552)” value ([2]; inoculum 5×10^5 CFU/mL, strain GC 4552) was 64 µg/mL (≈ 34.3 µM), the “MIC Enterococcus faecalis (GC 4553)” value ([2]; inoculum 5×10^5 CFU/mL, strain GC 4553) was 32 µg/mL (≈ 17.2 µM) and the “MIC Enterococcus faecalis (GC 4554)” value ([2]; inoculum 5×10^5 CFU/mL, strain GC 4554) was 64 µg/mL (≈ 34.3 µM). The “MIC Enterococcus faecium (GC 4556)” value ([2]; inoculum 5×10^5 CFU/mL, strain GC 4556) was 128 µg/mL (≈ 68.6 µM), the “MIC Enterococcus faecium (GC 4557)” value ([2]; inoculum 5×10^5 CFU/mL, strain GC 4557) was 16 µg/mL (≈ 8.58 µM) and the “MIC Enterococcus avium (GC 4558)” value ([2]; inoculum 5×10^5 CFU/mL, strain GC 4558) was 16 µg/mL (≈ 8.58 µM). For the same compound, the “MIC Enterococcus faecalis (GC 6189)” value ([2]; inoculum 5×10^5 CFU/mL, strain GC 6189) was 16 µg/mL (≈ 8.58 µM), the “MIC Streptococcus agalactiae (GC 4564)” value [3] was less than 0.12 µg/mL and the “MIC Streptococcus pneumoniae (ATCC 6301)” value [3] was less than 0.12 µg/mL. The “MIC Streptococcus pneumoniae (GC 1894)” value [3] was less than 0.12 µg/mL, the “MIC Streptococcus pneumoniae (GC 4565)” value [3] was less than 0.12 µg/mL and the “MIC Streptococcus pyogenes (GC 4563)” value [3] was 0.5 µg/mL (≈ 0.268 µM). The “MIC Streptococcus pneumoniae (ATCC 6301)” value ([3]; inoculum 5×10^5 CFU/mL, strain ATCC 6301) was less than 0.12 µg/mL, the “MIC Streptococcus pneumoniae (GC 1894)” value ([3]; inoculum 5×10^5 CFU/mL, strain GC 1894) was less than 0.12 µg/mL and the “MIC Streptococcus pyogenes (GC 4563)” value ([3]; inoculum 5×10^5 CFU/mL, strain GC 4563) was 0.5 µg/mL (≈ 0.268 µM). The “MIC Streptococcus agalactiae (GC 4564)” value ([3]; inoculum 5×10^5 CFU/mL, strain GC 4564) was less than 0.12 µg/mL, the “MIC Streptococcus pneumoniae (GC 4565)” value ([3]; inoculum 5×10^5 CFU/mL, strain GC 4565) was less than 0.12 µg/mL and the “MIC Escherichia coli (ATCC 25922)” value [4] was greater than 128 µg/mL. For the same compound, the “MIC Escherichia coli (GC 4559)” value [4] was greater than 128 µg/mL and the “MIC Escherichia coli (GC 4560)” value [4] was 128 µg/mL (≈ 68.6 µM).
